Source: publication PMC11895359 (Alzheimer's Research & Therapy, 2025)
pIC50: −log10 of the molar value. Values joined by “and” are separate entries in the source; they are usually repeats but may differ in a detail not shown here. Equal entries are not always repeated. Where two headings read alike, the source gives them in different places.

What was measured:
muscle regeneration = conditions: aged mouse models; cited from earlier work
[1] = target: nicotinamide N-methyl transferase; conditions: competes with nicotinamide; cited from earlier work
[2] = system: nicotinamide N-methyl transferase; conditions: cited from earlier work
[3] = LC/MS measurement of CSF nicotinamide and metabolites in NEAT trial participants; conditions: for Kp at 12 months / concentration at 12 months: 1500 mg; for Kp at 12 months: CSF methyl-nicotinamide as percent of plasma methyl-nicotinamide
Experimental: CSF samples were collected at 0 and 12 months.
The injection volume was 10 μL in triplicate.
(§1) We also measured the within-participant association between analytes. […] All bar graphs show mean and standard errors.

[4] = cited from earlier work
[5] = LC/MS measurement of plasma nicotinamide and metabolites in NEAT trial participants; conditions: for concentration at 0 months: Plasma analyte concentration, this work baseline; for Plasma measure: obtained simultaneously with nicotinamide by LC/MS
Description: (§2) The NEAT trial participants were recruited at UCLA and UC Irvine and were required to meet eligibility criteria that included clinical criteria for mild cognitive impairment or mild dementia due to AD, confirmed by a CSF biomarker (CSF amyloid beta 42 (Aβ42) ≤ 200 pg/mL or a ratio of total tau to Aβ42 ≥ 0.39) [9]. […] Blood was collected from all participants at 0, 6, and 12 months after overnight fasting and plasma rapidly obtained. CSF samples were collected at 0 and 12 months. Plasma and CSF samples were stored at −80 °C until further processing. All samples were included in analysis, with an interval from last dose of drug or placebo ranging from 6 to 432 h.
(§3) Each calibration dilution contained IS at a constant concentration of 1 μM. IS was also added to each patient sample to a final concentration of 0.5 μM. All solutions and QC samples were stored at −20 °C. The lower limit of quantification for each analyte was determined by finding the lowest calibration curve concentration that could both be distinguished with 95% confidence from blank readings and have a signal-to-noise ratio greater than 8 to 1 [10].
(§4) Protein was precipitated by adding 160 μL of −20 °C 99.7% acetonitrile-0.3% formic acid to the IS-sample mix. Samples were centrifuged for 20 min at 4 °C at 17,000 g. 40 μL of the supernatant was then diluted fivefold with 200 μL of 0.3% formic acid in an autosampler well plate (Waters186002643). All plasma and CSF analytes were determined simultaneously for groups of 4–20 participants from the 46 participants without knowledge of their treatment assignment.
(§5) Samples were analyzed on a Waters Acquity UPLC Quattro Premier mass spectrometer in triple quadrupole electrospray positive (ESI +) mode with an Acquity CSH™ Fluoro-Phenyl (2.1 × 50 mm, 1.7 μm) column. For liquid chromatography separation, we modified the method of Chu et al. (2021). We used 0.3% formic acid in water as the mobile A phase, and 99.7% acetonitrile/0.3% formic acid as the mobile B phase. The injection volume was 10 μL in triplicate. The sample elution gradient was programmed as 0 – 0.5 min. in 100% A; 0.5–2.5 min, linear to 95% B; re-equilibrated from 2.5–4.5 min. in 100% A. The flow rate was 0.3 mL/min, and column temperature was 50 °C.
(§6) Microsoft Excel (Version 16.82, Microsoft, Redmond, WA, USA) was used for data management and statistical analysis. Treatment allocation was unblinded after all sample analyte levels were completed by mass spectrometry. We compared the randomized placebo and treatment groups for main analyte effects by two-tailed unpaired Student’s T Tests, with significance at p < 0.05, without adjustment for multiple comparisons in this exploratory analysis. […] We also measured the within-participant association between analytes. […] All bar graphs show mean and standard errors.

[6] = system: mouse models of Alzheimer’s disease; conditions: mouse models of AD; cited from earlier work
CSF pTau231 = experiment: Change in CSF pTau231 in NEAT trial participants; format: in vivo, human; set-up: PTAU231 Month 12, individual participant / PTAU231 change, individual participant: unit not given here
Description: as §1

Aβ42 = experiment: Change in CSF Aβ42 in NEAT trial participants; format: in vivo, human; conditions: mean ± S.E.
Description: as §1

total tau = experiment: Change in CSF total tau in NEAT trial participants; format: in vivo, human; conditions: mean ± S.E.
Description: as §1

[7] = phase 2a trial, high-dose oral nicotinamide, early AD; cited from earlier work
Aβ40 = experiment: Change in CSF Aβ40 in NEAT trial participants; format: in vivo, human; conditions: mean ± S.E.
Description: as §1

pTau181 = experiment: Change in CSF pTau181 in NEAT trial participants; format: in vivo, human; conditions: CSF nicotinamide elevated, n = 6, 12 months, mean ± S.E.
Description: as §1

Aβ42/40 = experiment: Change in CSF Aβ42/40 ratio in NEAT trial participants; format: in vivo, human; conditions: mean ± S.E.
Description: as §1

total tau/ Aβ42 = experiment: Change in CSF total tau/Aβ42 ratio in NEAT trial participants; format: in vivo, human; conditions: mean ± S.E.
Description: as §1

Sirt1 = conditions: cited from earlier work
[8] = set-up: method as in Galla et al. 16; conditions: ref Galla et al. 16, cited from earlier work
[9] = in vivo
Description: as §2, §3, §4, §5, §6

[10] = obtained simultaneously with nicotinamide by LC/MS
[11] = n = 10, ± S.D., ref Clement et al. 14
[12] = n = 100, ± S.D., ref Seyedsadjadi et al. 15
[13] = CSF nicotinamide elevated, n = 6, 12 months
[14] = n = 659, ± S.D., ref Chu et al. 12
[15] = TX 1500mg, values below limit of quantification set to 0.1 uM, listed as 1-Methynicotinamide

For `C[n+]1cccc2c(N)cccc21` [5-amino-1-methylquinoline], the Muscle regeneration (muscle regeneration) is listed as “improve muscle regeneration”.

For `COc1ccc(C(N)=O)cn1` [JBSNF-000088, 6-methyloxy-nicotinamide], the pIC50 [1] is given as 5.74, the “Reduction of methyl-nicotinamide in mouse plasma” value [2] is given as 50% and the “Effect on body weight” value ([2]; mouse) is given as “reduced body weight”.

In the case of `NC(=O)c1ccc[n+]([C@@H]2O[C@H](COP(=O)([O-])OP(=O)(O)OC[C@H]3O[C@@H](n4cnc5c(N)ncnc54)[C@H](O)[C@@H]3O)[C@@H](O)[C@H]2O)c1` [NAD^+, Nicotinamide Adenine Dinucleotide], the CSF measure [3, 10] is given as “below our limits of detection”, the Plasma analyte concentration [4, 11] is given as 0.008 ± 0.02 µM and the Plasma analyte concentration [4, 12] is given as 0.023 ± 0.012 µM. For the same compound, the concentration at 0 months ([5]; human, plasma, baseline before treatment, n = 47, ± S.D.) was less than 1.2 µM, the Plasma measure [5] was “below our limits of detection” and the “Plasma NAD+ (not measurable above)” value ([5]; this work) was less than 1.2 nM.

In the case of `NC(=O)c1cccnc1` [Nicotinamide], the Cognitive function [6] is listed as “improved cognitive function”, the “PTAU231 Month 12, individual participant” value (CSF pTau231; TX 1500mg) is listed as 34.3 and 98.8 and 66 and 31.3 and 12.2 and 14.6 and 15.1 and 68.8 and 21.2 and 10.9 and 29 and 49.5 and 6.6 and 52.5 and 20.1 and 65.3 and 41 and 6.2 and 37 and the “PTAU231 change, individual participant” value (CSF pTau231; TX 1500mg, Month 12 minus baseline) is listed as -12 and 24 and -20 and -24.5 and -2.9 and -10.4 and -17.7 and 29.5 and -11.6 and 3.1 and 7.6 and 1.5 and -0.3 and -15 and -25.2 and -8.5 and -1.5 and -5.3. For the same compound, the “PTAU231 % change, individual participant” value (CSF pTau231; TX 1500mg, Month 12 vs baseline) was -26% and 32% and -23% and -44% and -19% and -42% and -54% and 75% and -35% and 40% and 36% and 3% and -4% and -22% and -1% and -28% and -17% and -13%, the “Percent Change in pTau231” value (CSF pTau231; all treated participants, 12 months) was -9% and the “Decrease of pTau231 from baseline” value (CSF pTau231; six treated participants with elevated CSF nicotinamide, 12 months) was 34%. The “Percent Change in pTau231” value (CSF pTau231; treated, CSF nicotinamide elevated (six participants), 12 months) was -34%, the “Increase of pTau231 from baseline” value (CSF pTau231; treated, CSF nicotinamide unelevated group, 12 months) was 3% and the “Percent Change in pTau231” value (CSF pTau231; treated, CSF nicotinamide unelevated, 12 months) was 3%. The “Percent Change in pTau231” value (CSF pTau231; treated, plasma nicotinamide elevated, 12 months) was -4%, the “Percent Change in pTau231” value (CSF pTau231; treated, plasma nicotinamide unelevated, 12 months) was -15% and the “Change in Aβ42” value (Aβ42; [13]) was -75 ± 44 pg/mL. For the same compound, the “Change in Aβ42” value (Aβ42; all treated, n = 19, 12 months) was -127 ± 38 pg/mL, the “Change in total tau” value (total tau; [13]) was -35 ± 84 pg/mL and the “Change in total tau” value (total tau; all treated, n = 19, 12 months) was -8.6 ± 54 pg/mL. For the same compound, the Safety and tolerability [7] was “good safety and tolerability”, the “Change in Aβ40” value (Aβ40; [13]) was -1823 ± 1094 pg/mL and the “Change in Aβ40” value (Aβ40; all treated, n = 19, 12 months) was -2307 ± 593 pg/mL. The “Change in pTau181” value (pTau181) was 1.1 ± 14 pg/mL, the “Change in Aβ42/40” value (Aβ42/40; [13]) was −2.1 ± 4% and the “Change in Aβ42/40” value (Aβ42/40; all treated, n = 19, 12 months) was −3.7 ± 1.7%. The Plasma analyte concentration [4, 11] was 38 ± 11 µM, the Plasma analyte concentration ([4]; n = 54, ± S.D., ref Ibrahim et al. 13) was 1.2 ± 0.14 µM and the Plasma analyte concentration [4, 12] was 32 ± 11 µM. For the same compound, the Plasma analyte concentration [4, 14] was 0.9 ± 0.02 µM, the “Change in total tau/ Aβ42” value (total tau/ Aβ42; [13]) was 35 ± 15% and the “Change in total tau/ Aβ42” value (total tau/ Aβ42; all treated, n = 19, 12 months) was 41 ± 7%. The “Percent of treated participants with elevated plasma nicotinamide” value ([5]; 12 months, n = 14 of 23) was 61%, the concentration at 12 months ([5]; human, plasma, oral, 1500 mg, Mean plasma nicotinamide, drug elevated subgroup, treated, plasma nicotinamide > […], 12 months) was 86 µM and the concentration at 12 months ([5]; human, plasma, oral, 1500 mg, Mean plasma nicotinamide, drug unelevated subgroup, treated, plasma nicotinamide ≤ […], 12 months) was 0.7 µM. It also gave a concentration at 27 h ([5]; human, plasma, oral, 1500 mg, Plasma nicotinamide, one participant, treated, sample 27 h after last dose) of 2 µM, a concentration at 6 months ([5]; human, plasma, po, 1500 mg, Mean plasma nicotinamide, nicotinamide-treated participants, 1500 mg PO BID) of 73 µM and a concentration at 12 months ([5]; human, plasma, po, 1500 mg, Mean plasma nicotinamide, nicotinamide-treated participants, 1500 mg PO BID, 12 months) of 52 µM.

In the case of `C[n+]1cccc(C(N)=O)c1` [methyl-nicotinamide, 1-methyl-nicotinamide], the “Sirt1 binding and stabilization” value (Sirt1) is given as “binds to and stabilizes Sirt1”, the “Percent of treated participants with CSF methyl-nicotinamide seen” value ([3]; 12 months, n = 9 of 19) is given as 47% and the “Ratio of elevated plasma methyl-nicotinamide to CSF methyl-nicotinamide” value ([3]; 125/3.4, 12 months) is given as 37. The “CSF 1-Methynicotinamide, Month 12, individual participant” value [3, 15] was 0.1 µM and 5.9 µM and 6.5 µM and 4.1 µM and 5.6 µM and 5.7 µM and 1.4 µM and 1.3 µM and 6.4 µM and 7.5 µM and 9.2 µM and 3.6 µM, the “CSF methyl-nicotinamide as percent of CSF nicotinamide” value ([3]; drug elevated subgroup, 3.4/57) was 6% and the Kp at 12 months ([3]; human, in vivo, drug elevated subgroup, 3.4 vs 125 μM) was 0.03. The Kp at 12 months ([3]; human, in vivo, drug unelevated subgroup, 2.4 vs plasma 37 μM) was 0.06, the concentration at 12 months ([3]; human, in vivo, CSF methyl-nicotinamide range in participants with elevated level, nicotinamide treated, 12 months) was 3 to 10 µM and the concentration at 12 months ([3]; human, in vivo, Mean CSF methyl-nicotinamide, CSF nicotinamide elevated subgroup, treated, 6 of 19 participants, 12 months) was 3.4 µM. For the same compound, the concentration at 12 months ([3]; human, in vivo, Mean CSF methyl-nicotinamide, CSF nicotinamide unelevated subgroup, treated, 12 months) was 2.4 µM, the concentration at 12 months ([3]; human, in vivo, Mean CSF methyl-nicotinamide, all nicotinamide-treated participants, 12 months) was 3.1 µM and the concentration at 0 months ([3]; human, in vivo, CSF analyte concentration, this work baseline, baseline before treatment, n = 47) was no more than 0.1 µM. For the same compound, the “Fold increase of mean CSF methyl-nicotinamide” value ([3]; treated, 12 months, vs 0.1 μM limit of quantification) was “at least 31 fold”, the CSF analyte concentration ([8]; n = 10, ± S.D.) was 0.039 ± 0.025 µM and the CSF methyl-nicotinamide ([8]; participants without AD) was “around 39 nM”. The Plasma analyte concentration [4, 11] was 0.05 ± 0.01 µM, the Plasma analyte concentration ([4]; n = 10, ± S.D., ref Galla et al. 16) was 0.185 ± 0.116 µM and the Plasma analyte concentration [4, 12] was 0.033 ± 0.012 µM. The Plasma analyte concentration [4, 14] was 0.1 ± 0.002 µM, the “Fold increase of plasma methyl-nicotinamide above baseline in 6 of 7 nicotinamide unelevated participants” value ([5]; 12 months) was “at least 127 fold” and the “Plasma methyl-nicotinamide relative to mean plasma nicotinamide, drug elevated subgroup” value ([5]; 12 months, 125/86) was 1.5 fold. The “Fold increase of plasma methyl-nicotinamide above baseline and placebo, drug elevated subgroup” value ([5]; 12 months, 125/<0.1) was no less than 1250 fold, the “Plasma 1-Methynicotinamide, Month 6, individual participant” value [5, 15] was 72.2 µM and 6.7 µM and 98.7 µM and 8.5 µM and 73.1 µM and 120.1 µM and 30.7 µM and 77.4 µM and 114.1 µM and 160.6 µM and 61.9 µM and 130.4 µM and 151.9 µM and 186.7 µM and 248.2 µM and 186.6 µM and 191.6 µM and 68.1 µM and 186.9 µM and the “Plasma 1-Methynicotinamide, Month 12, individual participant” value [5, 15] was 101.4 µM and 6.8 µM and 0.5 µM and 93.1 µM and 19.8 µM and 119.3 µM and 87.2 µM and 118.8 µM and 0.1 µM and 127.8 µM and 33.8 µM and 71.4 µM and 101.3 µM and 15.3 µM and 73.9 µM and 116.0 µM and 293.9 µM and 219.6 µM and 242.1 µM and 152.9 µM and 1.2 µM and 76.9 µM and 15.0 µM. The “Plasma analyte concentration, this work baseline” value ([5]; baseline before treatment, n = 47, ± S.D.) was 0.14 ± 0.03 µM, the concentration at 12 months ([5]; human, in vivo, 1500 mg BID, Mean plasma methyl-nicotinamide in 6 of 7 treated participants without measurable plasma nicotinamide, 12 months) was 12.7 µM and the concentration at 12 months ([5]; human, in vivo, 1500 mg, Mean plasma methyl-nicotinamide, plasma nicotinamide elevated subgroup, treated, 12 months) was 125 µM. It also gave a concentration at 12 months ([5]; human, in vivo, 1500 mg, Mean plasma methyl-nicotinamide, plasma nicotinamide unelevated subgroup, treated, 9 participants, 12 months) of 37 µM, a concentration at 12 months ([5]; human, in vivo, 1500 mg, Plasma methyl-nicotinamide range in participants with elevated level, nicotinamide treated, 12 months) of 6 to 294 µM and a concentration at 0 months ([5]; human, in vivo, baseline before treatment, n = 47, ± S.D.) of 0.14 µM. The concentration at 6 months ([5]; human, in vivo, po, 1500 mg, Mean plasma methyl-nicotinamide, nicotinamide-treated participants, 1500 mg PO BID) was 114 µM, the concentration at 12 months ([5]; human, in vivo, po, 1500 mg, Mean plasma methyl-nicotinamide, nicotinamide-treated participants, 1500 mg PO BID, 12 months) was 91 µM and the “Fold increase of mean plasma methyl-nicotinamide” value ([5]; treated, 6 and 12 months) was greater than 600 fold.

For `NC(=O)c1ccc[n+]([C@@H]2O[C@H](COP(=O)([O-])O)[C@@H](O)[C@H]2O)c1` [nicotinamide mononucleotide], the CSF measure ([3]; in vivo) was “below our limits of detection” and the Plasma measure [9] was “below our limits of detection”.

With `O=C(O)c1cccnc1` [nicotinic acid] the CSF measure [3, 10] was “below our limits of detection” and the Plasma measure [5] was “below our limits of detection”.
